Target: purified human, His-tagged PRC2 complex (Homo sapiens (Human), UniProt O75530)
Test: Hot Spot HMT assay, inhibition of PRC2 enzymatic activity
Format: biochemical
Conditions: 10 nM PRC2 complex, 1 μM 3H-SAM, core histone H3, 10-point dose-response
Procedure, shortened: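 Methyl transfer from 1 μM tritiated SAM onto 0.05 mg/ml core histone H3, catalysed by 10 nM His/Flag-tagged human PRC2 holoenzyme, was run 1 hr at 30° C after a 20 min compound preincubation. Serial dilutions began at 1.0 μM; product captured on filters and counted.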

Sequence of purified human, His-tagged PRC2 complex (O75530 whole entry): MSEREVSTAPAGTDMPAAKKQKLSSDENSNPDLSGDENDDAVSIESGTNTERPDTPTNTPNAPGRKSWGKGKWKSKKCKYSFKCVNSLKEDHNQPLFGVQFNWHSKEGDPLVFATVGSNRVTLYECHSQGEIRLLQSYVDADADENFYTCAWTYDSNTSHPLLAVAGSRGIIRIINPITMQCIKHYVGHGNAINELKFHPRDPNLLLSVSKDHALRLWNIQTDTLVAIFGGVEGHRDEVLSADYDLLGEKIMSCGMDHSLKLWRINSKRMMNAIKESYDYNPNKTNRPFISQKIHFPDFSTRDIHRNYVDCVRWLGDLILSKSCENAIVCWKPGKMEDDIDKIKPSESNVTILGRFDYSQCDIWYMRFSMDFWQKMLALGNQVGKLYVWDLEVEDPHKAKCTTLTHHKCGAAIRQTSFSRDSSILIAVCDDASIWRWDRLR
Sequence of purified human, His-tagged PRC2 complex (Q15910 whole entry partner): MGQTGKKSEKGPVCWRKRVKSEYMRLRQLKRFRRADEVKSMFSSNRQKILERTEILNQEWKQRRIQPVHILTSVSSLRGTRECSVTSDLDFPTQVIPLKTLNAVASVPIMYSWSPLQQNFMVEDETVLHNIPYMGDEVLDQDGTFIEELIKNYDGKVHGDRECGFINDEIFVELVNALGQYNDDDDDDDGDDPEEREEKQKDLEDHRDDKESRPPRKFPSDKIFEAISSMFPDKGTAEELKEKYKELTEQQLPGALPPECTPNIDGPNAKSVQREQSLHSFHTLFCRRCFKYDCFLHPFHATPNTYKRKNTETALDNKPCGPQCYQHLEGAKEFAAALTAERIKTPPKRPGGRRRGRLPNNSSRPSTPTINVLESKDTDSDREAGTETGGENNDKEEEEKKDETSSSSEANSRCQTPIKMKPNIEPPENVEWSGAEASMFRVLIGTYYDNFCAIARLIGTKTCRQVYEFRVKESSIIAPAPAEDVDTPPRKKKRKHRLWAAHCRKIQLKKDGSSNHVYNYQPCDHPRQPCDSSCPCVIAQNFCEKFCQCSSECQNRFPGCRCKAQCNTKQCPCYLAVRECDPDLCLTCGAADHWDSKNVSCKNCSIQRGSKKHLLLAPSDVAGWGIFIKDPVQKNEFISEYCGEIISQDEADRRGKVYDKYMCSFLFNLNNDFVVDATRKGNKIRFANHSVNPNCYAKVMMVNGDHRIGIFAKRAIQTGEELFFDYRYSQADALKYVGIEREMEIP
Sequence of purified human, His-tagged PRC2 complex (Q15022 whole entry partner): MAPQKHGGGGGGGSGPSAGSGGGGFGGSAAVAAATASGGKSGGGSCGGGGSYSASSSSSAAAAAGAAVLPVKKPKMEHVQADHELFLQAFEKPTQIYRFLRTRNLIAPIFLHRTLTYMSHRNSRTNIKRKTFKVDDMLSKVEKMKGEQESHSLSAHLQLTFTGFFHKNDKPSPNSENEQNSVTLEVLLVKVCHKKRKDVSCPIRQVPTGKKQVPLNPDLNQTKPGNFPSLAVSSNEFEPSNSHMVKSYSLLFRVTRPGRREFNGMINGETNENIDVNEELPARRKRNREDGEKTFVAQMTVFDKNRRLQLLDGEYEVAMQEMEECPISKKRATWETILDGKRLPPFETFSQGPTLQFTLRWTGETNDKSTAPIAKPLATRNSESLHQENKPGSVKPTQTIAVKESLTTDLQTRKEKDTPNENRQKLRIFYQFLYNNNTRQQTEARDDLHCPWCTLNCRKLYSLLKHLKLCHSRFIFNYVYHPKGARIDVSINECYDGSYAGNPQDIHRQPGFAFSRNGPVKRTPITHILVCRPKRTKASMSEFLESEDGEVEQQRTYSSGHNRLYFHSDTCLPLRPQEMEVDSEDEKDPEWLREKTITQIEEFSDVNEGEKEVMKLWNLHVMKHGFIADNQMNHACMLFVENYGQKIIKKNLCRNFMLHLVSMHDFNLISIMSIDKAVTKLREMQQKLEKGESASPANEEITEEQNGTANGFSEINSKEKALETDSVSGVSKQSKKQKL
Sequence of purified human, His-tagged PRC2 complex (Q6ZN18 whole entry partner): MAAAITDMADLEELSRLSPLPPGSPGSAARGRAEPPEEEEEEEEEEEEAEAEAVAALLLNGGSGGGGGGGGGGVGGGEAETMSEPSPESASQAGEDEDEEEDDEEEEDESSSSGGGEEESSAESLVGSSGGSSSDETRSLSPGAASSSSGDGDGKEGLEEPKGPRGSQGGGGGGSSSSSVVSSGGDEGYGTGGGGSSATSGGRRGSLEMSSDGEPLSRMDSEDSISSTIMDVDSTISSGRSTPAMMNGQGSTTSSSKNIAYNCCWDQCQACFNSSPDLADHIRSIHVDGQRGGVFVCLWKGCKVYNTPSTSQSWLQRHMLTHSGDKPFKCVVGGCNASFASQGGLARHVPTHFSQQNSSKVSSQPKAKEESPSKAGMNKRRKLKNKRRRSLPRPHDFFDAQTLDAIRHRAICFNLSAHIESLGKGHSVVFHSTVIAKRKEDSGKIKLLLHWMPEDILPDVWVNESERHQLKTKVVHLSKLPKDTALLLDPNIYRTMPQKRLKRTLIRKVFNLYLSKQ
Sequence of purified human, His-tagged PRC2 complex (Q09028 whole entry partner): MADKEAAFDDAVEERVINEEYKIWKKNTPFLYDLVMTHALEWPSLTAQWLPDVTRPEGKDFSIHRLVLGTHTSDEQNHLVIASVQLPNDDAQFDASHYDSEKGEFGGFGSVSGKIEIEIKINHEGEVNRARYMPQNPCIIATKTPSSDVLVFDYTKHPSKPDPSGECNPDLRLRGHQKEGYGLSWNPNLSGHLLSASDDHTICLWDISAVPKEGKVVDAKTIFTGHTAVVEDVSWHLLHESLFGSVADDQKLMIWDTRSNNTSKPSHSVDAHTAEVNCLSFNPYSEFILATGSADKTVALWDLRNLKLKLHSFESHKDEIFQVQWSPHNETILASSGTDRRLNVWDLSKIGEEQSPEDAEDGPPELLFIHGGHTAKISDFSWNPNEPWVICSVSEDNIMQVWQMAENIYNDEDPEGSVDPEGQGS

| SMILES | IC50 [nM] |
| --- | --- |
| CN(C)Cc1cc(-c2cnc(NCc3c(F)ccc4c3CCO4)n3cc(C#N)nc23)n(C)n1 [Example 210, 8-(3-((dimethylamino)methyl)-1-methyl-1H-pyrazol-5-yl)-5-(((5-fluoro-2,3-dihydrobenzofuran-4-yl)methyl)amino)imidazo[1,2-c]pyrimidine-2-carbonitrile] | < 100 |
| CNCc1cc(-c2cnc(NCc3c(F)ccc4c3CCO4)n3cc(C#N)nc23)n(C)n1 [Example 211, 5-(((5-fluoro-2,3-dihydrobenzofuran-4-yl)methyl)amino)-8-(1-methyl-3-((methylamino)methyl)-1H-pyrazol-5-yl)imidazo[1,2-c]pyrimidine-2-carbonitrile] | < 100 |
| Cn1nc(C#N)cc1-c1cnc(NCc2c(F)ccc3c2CCO3)n2cc(C#N)nc12 [Example 212, 8-(3-cyano-1-methyl-1H-pyrazol-5-yl)-5-(((5-fluoro-2,3-dihydrobenzofuran-4-yl)methyl)amino)imidazo[1,2-c]pyrimidine-2-carbonitrile] | < 100 |
| N#Cc1cn2c(NCc3c(F)ccc4c3CCO4)ncc(-c3ccc(C(=O)O)nc3)c2n1 [Example 215, 5-(2-cyano-5-(((5-fluoro-2,3-dihydrobenzofuran-4-yl)methyl)amino)imidazo[1,2-c]pyrimidin-8-yl)picolinic Acid] | < 100 |
| CN(C)Cc1ncc(-c2cnc(NCc3c(F)ccc4c3CCO4)n3cc(C#N)nc23)cn1 [Example 216, 8-(2-((dimethylamino)methyl)pyrimidin-5-yl)-5-(((5-fluoro-2,3-dihydrobenzofuran-4-yl)methyl)amino)imidazo[1,2-c]pyrimidine-2-carbonitrile] | < 100 |
| CN(C)CCc1cccc(-c2cnc(NCc3c(F)ccc4c3CCO4)n3cc(C#N)nc23)c1 [Example 217, 8-(3-(2-(dimethylamino)ethyl)phenyl)-5-(((5-fluoro-2,3-dihydrobenzofuran-4-yl)methyl)amino)imidazo[1,2-c]pyrimidine-2-carbonitrile] | < 100 |
| N#Cc1cn2c(NCc3c(F)ccc4c3CCO4)ncc(-c3cc[nH]c(=O)c3)c2n1 [Example 218, 5-(((5-fluoro-2,3-dihydrobenzofuran-4-yl)methyl)amino)-8-(2-oxo-1,2-dihydropyridin-4-yl)imidazo[1,2-c]pyrimidine-2-carbonitrile] | < 100 |
| N#Cc1cn2c(NCc3c(F)ccc4c3CCO4)ncc(-c3ccc([C@@H]4CCCN4)cc3)c2n1 [Example 219, (S)-5-(((5-fluoro-2,3-dihydrobenzofuran-4-yl)methyl)amino)-8-(4-(pyrrolidin-2-yl)phenyl)imidazo[1,2-c]pyrimidine-2-carbonitrile] | < 100 |
| N#Cc1cn2c(NCc3c(F)ccc4c3CCO4)ncc(-c3ccc([C@H]4CCCN4)cc3)c2n1 [Example 220, (R)-5-(((5-fluoro-2,3-dihydrobenzofuran-4-yl)methyl)amino)-8-(4-(pyrrolidin-2-yl)phenyl)imidazo[1,2-c]pyrimidine-2-carbonitrile] | 100 to 500 |
| CN1CCC1c1ccc(-c2cnc(NCc3c(F)ccc4c3CCO4)n3cc(C#N)nc23)cc1 (stereo not drawn) [Example 221, 5-(((5-fluoro-2,3-dihydrobenzofuran-4-yl)methyl)amino)-8-(4-(1-methylazetidin-2-yl)phenyl)imidazo[1,2-c]pyrimidine-2-carbonitrile] | < 100 |

Results, then the compound that gave them:

| IC50 [nM] | SMILES |
| --- | --- |
| < 100 | N#Cc1cn2c(NCc3c(F)ccc4c3CCO4)ncc(-c3ccc(C4CC(=O)N4)cc3)c2n1 (stereo not drawn) [Example 222, 5-(((5-fluoro-2,3-dihydrobenzofuran-4-yl)methyl)amino)-8-(4-(4-oxoazetidin-2-yl)phenyl)imidazo[1,2-c]pyrimidine-2-carbonitrile] |
| < 100 | [2H]C1Oc2ccc(F)c(C([2H])([2H])Nc3ncc(-c4ccc(CN(C)C)cc4C)c4nc(C#N)cn34)c2C1[2H] (stereo not drawn) [Example 223, 8-(4-((dimethylamino)methyl)-2-methylphenyl)-5-(((5-fluoro-2,3-dihydrobenzofuran-4-yl-2,3-d2)methyl-d2)amino)imidazo[1,2-c]pyrimidine-2-carbonitrile] |
| 100 to 500 | Cn1cc(-c2cnc(NCc3c(F)ccc4c3CCO4)n3cc(C#N)nc23)c(C#N)n1 [Example 224, 8-(3-cyano-1-methyl-1H-pyrazol-4-yl)-5-(((5-fluoro-2,3-dihydrobenzofuran-4-yl)methyl)amino)imidazo[1,2-c]pyrimidine-2-carbonitrile] |
| < 100 | N#Cc1cn2c(NCc3c(F)ccc4c3CCO4)ncc(-c3ccc(C4COCCN4)cc3)c2n1 (stereo not drawn) [Example 225, 5-(((5-fluoro-2,3-dihydrobenzofuran-4-yl)methyl)amino)-8-(4-(morpholin-3-yl)phenyl)imidazo[1,2-c]pyrimidine-2-carbonitrile] |
| 100 to 500 | N#Cc1cn2c(NCc3c(F)ccc4c3CCO4)ncc(-c3ccc(C4CCN4)cc3)c2n1 (stereo not drawn) [Example 226, 8-(4-(azetidin-2-yl)phenyl)-5-(((5-fluoro-2,3-dihydrobenzofuran-4-yl)methyl)amino)imidazo[1,2-c]pyrimidine-2-carbonitrile] |
| < 100 | CN1CCOCC1c1ccc(-c2cnc(NCc3c(F)ccc4c3CCO4)n3cc(C#N)nc23)cc1 (stereo not drawn) [Example 227, 5-(((5-fluoro-2,3-dihydrobenzofuran-4-yl)methyl)amino)-8-(4-(4-methylmorpholin-3-yl)phenyl)imidazo[1,2-c]pyrimidine-2-carbonitrile] |
| < 100 | CN1CCN(C(=O)c2cc(-c3cnc(NCc4c(F)ccc5c4CCO5)n4cc(C#N)nc34)n(C)n2)CC1 [Example 229, 5-(((5-fluoro-2,3-dihydrobenzofuran-4-yl)methyl)amino)-8-(1-methyl-3-(4-methylpiperazine-1-carbonyl)-1H-pyrazol-5-yl)imidazo[1,2-c]pyrimidine-2-carbonitrile] |
| < 100 | CN(C)CCn1nccc1-c1cnc(NCc2c(F)ccc3c2CCO3)n2cc(C#N)nc12 [Example 230, 8-(1-(2-(dimethylamino)ethyl)-1H-pyrazol-5-yl)-5-(((5-fluoro-2,3-dihydrobenzofuran-4-yl)methyl)amino)imidazo[1,2-c]pyrimidine-2-carbonitrile] |
| 100 to 500 | N#Cc1cn2c(NCc3c(F)ccc4c3CCO4)ncc(-c3ccnn3CCO)c2n1 [Example 231, 5-(((5-fluoro-2,3-dihydrobenzofuran-4-yl)methyl)amino)-8-(1-(2-hydroxyethyl)-1H-pyrazol-5-yl)imidazo[1,2-c]pyrimidine-2-carbonitrile] |
| 100 to 500 | N#Cc1cn2c(NCc3c(F)ccc4c3CCO4)ncc(-c3n[nH]cc3Br)c2n1 [Example 232, 8-(4-bromo-1H-pyrazol-3-yl)-5-(((5-fluoro-2,3-dihydrobenzofuran-4-yl)methyl)amino)imidazo[1,2c]pyrimidine-2-carbonitrile] |
| < 100 | Cc1c(-c2cnc(NCc3c(F)ccc4c3CCO4)n3cc(C#N)nc23)cnc(CN(C)C)c1F [Example 233, 8-(6-((dimethylamino)methyl)-5-fluoro-4-methylpyridin-3-yl)-5-(((5-fluoro-2,3-dihydrobenzofuran-4-yl)methyl)amino)imidazo[1,2-c]pyrimidine-2-carbonitrile] |
